Data: patent US7361774B2, “Chalcone compound” (Takara Bio Inc., priority 2002, dated 2008)

Assays:
[1] = target: T1, aldose reductase derived from human muscle cells (Homo sapiens, UniProt P15121); experiment: Inhibitory activity for aldose reductase (NADPH absorbance at 340 nm, methylglyoxal substrate); format: biochemical
T1 construct: purchased Wako Pure Chemical Industries
Description: (1) Inhibitory activities for aldose reductase of the compounds a and b were measured by the following method. Twenty microliters of 100 mM methylglyoxal was added to 10 μl of the compound a or b (dissolved in a 50% aqueous dimethyl sulfoxide solution) as a sample, 100 μl of 0.2 M phosphate buffer (pH 6.2), 20 μl of 1 mM NADPH (phosphate buffer), 10 μl of a solution of aldose reductase derived from human muscle cells (0.1 U/ml, manufactured by Wako Pure Chemical Industries, phosphate buffer). After 30 seconds passed, change in absorbance of NADPH at 340 nm was determined for 180 seconds. A 50% aqueous dimethyl sulfoxide solution was used as a negative control in place of the sample. In addition, the absorbance was determined using distilled water as a blank of each sample in place of the methylglyoxal solution. The found values are expressed as an average of the values in two experimental values. The inhibitory ratio (%) for aldose reductase was calculated in accordance with the following formula. Inhibitory Ratio (%)=[1-[(ΔAs−ΔAsb)/(ΔAc−ΔAcb)]]×100
Here, ΔAs and ΔAc are changes in absorbance per 1 minute of a sample solution, and a negative control solution, respectively, and ΔAsb and ΔAcb are changes in absorbance per 1 minute of blank of a sample solution, and a negative control solution, respectively.

[2] = test system: RAW 264.7 cells; experiment: Suppressive activity for NO production induced by LPS (NO2- in medium); format: cell-based; conditions: compound a 1.5, 3, 6, 12 μM; compound b 3, 6, 12, 24 μM; LPS 15 hours
Description: RAW 264.7 cells (ATCC TIB 71) were suspended in Dulbecco's modified Eagle's medium (manufactured by Bio Whittaker, 12-604F) containing 10% fetal bovine serum (manufactured by GIBCO), so as to have a concentration of 4×10^5 cells/ml, and the suspension was put to each well of a 48-well microtiter plate in an amount of 500 μl per well. The cells were cultured at 37° C. in the presence of 5% carbon dioxide gas. After 24 hours, the medium was exchanged with Dulbecco's modified Eagle's medium (manufactured by Bio Whittaker, 12-917F) containing 10% fetal bovine serum (manufactured by GIBCO), 2 mM L-glutamine (manufactured by Life Tech Oriental Co., Ltd., 25030-149) without containing phenol red. The compound a (dimethyl sulfoxide solution) was added to each well so as to have a concentration of 1.5, 3, 6, or 12 μM, or the compound b (dimethyl sulfoxide solution) was added to each well so as to have a concentration of 3, 6, 12, or 24 μM. […] Thereafter, the concentration of NO2^− which was produced by oxidation of NO in the medium was determined. […] Thereafter, absorbance at 540 nm was determined. The concentration of NO2 − in the medium was calculated from a calibration curve prepared from known concentrations of NaNO2. […]

[3] = test system: RAW 264.7 cells; experiment: Suppressive activity for IL-6 production induced by LPS (sandwich enzyme immunoassay); format: cell-based; conditions: compound a 1.5, 3, 6, 12 μM; compound b 3, 6, 12, 24 μM; LPS 15 hours
Description: RAW 264.7 cells (ATCC TIB 71) were suspended in Dulbecco's modified Eagle's medium (manufactured by Bio Whittaker, 12-604F) containing 10% fetal bovine serum (manufactured by GIBCO) so as to have a concentration of 4×10^5 cells/ml, and the suspension was put to each well of a 48-well microtiter plate in an amount of 500 μl per well. The cells were cultured at 37° C. in the presence of 5% carbon dioxide gas. After 24 hours, the medium was exchanged with Ultra CHO medium (manufactured by Bio Whittaker, 12-724Q). The compound a (dimethyl sulfoxide solution) was added to each well so as to have a concentration of 1.5, 3, 6, or 12 μM, or the compound b (dimethyl sulfoxide solution) was added to each well so as to have a concentration of 3, 6, 12, or 24 μM. After additional 4 hours of culture, a 100 μg/ml aqueous lipopolysaccharide (LPS, manufactured by Sigma, L-2010) solution was added to each well in an amount of 5 μl per well, and the cells were cultured for 15 hours. Thereafter, the supernatant of the medium was collected. The content of interleukin 6 (IL-6) in the supernatant of the medium was determined with a sandwich enzyme immunoassay (manufactured by genzyme TECHNE, 4922). In addition, there were set a group without addition of the compounds a and b as a positive control, and a group without addition of LPS as a negative control. All of the determinations were carried out twice. […]

[4] = test system: PC12 cells (CRL-1721) derived from rat adrenal medulla pheochromocytoma, differentiated into neuron-like cells; experiment: Neuronal protection from NO toxicity (SNP) in NGF-differentiated PC12 cells, MTT; format: cell-based; conditions: 10 μM compound b, 50 μM SNP, 48 hours, control without compound and SNP = 100, SNP alone 59.1
Description: (1) The suppressive activity for NO toxicity of the compound b was assayed in accordance with the following method. PC12 cells (CRL-1721) derived from rat adrenal medulla pheochromocytoma were suspended in DMEM medium (manufactured by Bio Whittaker) containing 10% fetal bovine serum (manufactured by Bio Whittaker) so as to have a concentration of 1×10^5 cells/ml. The suspension was put in each well of a 96-well plate in an amount of 0.1 ml per well, and the cells were cultured at 37° C. in the presence of 5% carbon dioxide gas. After the cells were cultured for 24 hours, the medium was removed and exchanged with DMEM medium containing 10 ng/ml of NGF (manufactured by TAKARA BIO Inc.) and 10% fetal bovine serum. PC12 cells were cultured for 3 days, and differentiated into neuron-like cells. After the culture, the medium was removed and exchanged with DMEM medium containing 10 μM of the compound b, 10 ng/ml of NGF, and 10% fetal bovine serum. […] Solubilized formazan was determined at a wavelength of 590 nm (control wavelength of 630 nm). […] Viability ratio (%) of cells was calculated from MTT found values of each test group by defining the MTT value of the control group (group not containing the compound b and SNP) as 100.

[5] = test system: PC12 cells derived from rat adrenal medulla pheochromocytoma; experiment: Suppressive activity for NO toxicity (SNP) in PC12 cells, MTT; format: cell-based; conditions: 10 μM compound b, 50 μM SNP, 66 hours, control without compound and SNP = 100, SNP alone 48.1
Description: (2) The suppressive activity of the compound b for NO toxicity was assayed in accordance with the following method. PC12 cells derived from rat adrenal medulla pheochromocytoma were suspended in DMEM medium containing 10% fetal bovine serum so as to have a concentration of 1.5×10^5 cells/ml. The suspension was put to each well of a 96-well plate in an amount of 0.1 ml per well, and cultured at 37° C. in the presence of 5% carbon dioxide gas. After 24 hours of culture, the medium was removed, and exchanged with DMEM medium containing 10 μM of the compound b and 10% fetal bovine serum. After the cells were cultured for 2 hours, SNP was added thereto so as to have a concentration of 50 μM, and the cells were cultured for 66 hours. After the termination of the culture, the MTT determination was carried out in the same manner as in item (1) of Example 4, and the viability ratio (%) of cells was calculated. All of the determinations were carried out three times.

In the case of `CC12CCC(O)C(C)(C)C1Cc1c(O)ccc(C(=O)/C=C/c3ccc(O)cc3)c1O2` (single isomer, unassigned) [Compound a, (E)-1-(5,6,7,8,8a,10a-hexahydro-1,7-dihydroxy-8,8,10a-trimethyl-9H-xanthen-4-yl)-3-(4-hydroxyphenyl)-2-propen-1-one], the “Inhibitory Ratio (%) for Aldose Reductase” value ([1]; final concentration 2.5 μM) is reported as 33.3%, the “Inhibitory Ratio (%) for Aldose Reductase” value ([1]; final concentration 5 μM) is reported as 48.4% and the “Inhibitory Ratio (%) for Aldose Reductase” value ([1]; final concentration 10 μM) is reported as 65.7%. The “Inhibitory Ratio (%) for Aldose Reductase” value ([1]; final concentration 20 μM) was 77.2%, the “Suppression of induction for NO production by LPS (NO2- concentration in medium, FIG. 7)” value [2] was “supppressed the induction for NO production by LPS in a concentration-dependent manner” and the “Inhibition of induction of IL-6 production by LPS (IL-6 in supernatant, FIG. 8)” value [3] was “inhibited the induction of IL-6 production by LPS in a concentration-dependent manner”.

`CC(C)=CCCC1(C)Oc2c(C(=O)/C=C/c3ccc(O)cc3)ccc(O)c2CC1O` (single isomer, unassigned) [Compound b, (E)-1-(3,4,-dihydro-3,5-dihydroxy-2-(3-isohexeneyl)-2-methyl-2H-1-benzopyran-8-yl)-3-(4-hydroxyphenyl)-2-propene-1-one] was tested, and the “Inhibitory Ratio (%) for Aldose Reductase” value ([1]; final concentration 2.5 μM) was 35.1%, the “Inhibitory Ratio (%) for Aldose Reductase” value ([1]; final concentration 5 μM) was 50.6% and the “Inhibitory Ratio (%) for Aldose Reductase” value ([1]; final concentration 10 μM) was 66.8%. For the same molecule, the “Inhibitory Ratio (%) for Aldose Reductase” value ([1]; final concentration 20 μM) was 79.1%, the “Viability Ratio (%) of Cells” value [4] was 87.4% and the “Viability Ratio (%) of Cells” value [5] was 91.0%. The “Suppression of induction for NO production by LPS (NO2- concentration in medium, FIG. 7)” value [2] was “supppressed the induction for NO production by LPS in a concentration-dependent manner” and the “Inhibition of induction of IL-6 production by LPS (IL-6 in supernatant, FIG. 8)” value [3] was “inhibited the induction of IL-6 production by LPS in a concentration-dependent manner”.
